Experimental data published in patent publication US20200031811A1, “SUBSTITUTED MONO- AND POLYAZANAPHTHALENE DERIVATIVES AND THEIR USE” (Basilea Pharmaceutica International AG, priority 2015, published 2020).

What was measured:
[1] = target: T1, MNK1 (Homo sapiens, UniProt Q9BUB5); experiment: MNK inhibition assay (Z-Lyte kinase assay, Ser/Thr 7 peptide); assay type: biochemical; conditions: for IC50: recombinant GST-MNK1, 3 hours at 31° C.
T1 construct: purchased Life Technologies or Carna Biosciences PV6023 or 02-145; host or cells: baculovirus infected insect cells
From the text: For the measurement of the activity of the MNK1 kinase the Z-Lyte kinase assay system was used. The kinase activity of MNK1 can be quantified with the Z-Lyte kinase assay kit Ser/Thr 7 peptide (Life Technologies PV3180). The kit was utilized according to the instructions of the provider. A recombinant GST-MNK1 fusion protein produced in and purified from baculovirus infected insect cells was used as enzyme source (GST-MNK1 Life Technologies PV6023 or Carna Biosciences 02-145). It was verified that both sources of the MNK1 enzyme gave similar IC50 values with several compounds. The MNK1 enzyme assay was performed in 384 well round bottom black microtiter plates (Corning 3676). The kinase reaction was performed for 3 hours at 31° C. As instructed by the provider of the kit the amount of enzyme was chosen such that ˜30% of the substrate peptide was phosphorylated in control wells containing buffer only. The MNK1 inhibiting activity of compounds was tested by adding the compounds to the kinase reaction at a concentration of 10000, 5000, 2000, 1000, 500, 200, 100, 50 nM. Compounds with strong MNK1 inhibition were tested at 20, 10, 5, 2, 1 and 0.5 nM in addition. Each compound concentration was tested at least in duplicate. The % phosphorylation of the substrate peptide at each compound concentration was calculated as described in the assay manual. The fluorescent signals were recordes on Biotek Cytation 3 microplate reader. The IC50, the concentration that reduced substrate phosphorylation by 50% if compared to buffer only wells, was calculated with the Grafit 6 software (Erythacus software).

[2] = test system: human pancreatic cancer cell line MiaPaCa2 (ATCC CRL-1420); experiment: Cell growth assay (CellTiterGlo, 72 hours); assay type: cell-based; conditions: for IC50: MIA PaCa-2, MiaPaCa2 cells, 72 hours, read-out: IC50 MiaPaCa
Protocol: The inhibition of cell growth by the compounds was tested by exposing the human pancreatic cancer cell line MiaPaCa2 (ATCC CRL-1420) to the compounds. The assay was performed in 384 well clear bottom white microtiter plates (Greiner #781098). Each well was seeded with 10^3 cells in 20 μl of Dulbecco's modified Eagle's medium (Sigma D6796) supplied with 10% fetal calf scrum (Sigma F7524), 2.5% horse serum (Sigma H0146), 1% Penicillin-Streptomycin (Sigma P0781), 1% MEM nonessential amino acid solution 100× (Sigma M71459) and 1% 200 mM L-Glutamine (Sigma G7513) culture medium. After overnight incubation at 37° C. in 5% CO2 the compounds were added in the following concentrations: 100, 50, 20, 10, 5, 2, 1, 0.5, 0.2 and 0.1 μM. Each compound concentration was tested in quadruplicate. The incubation was then continued for 72 hours. After 72 hours the growth of the cells was assessed by the addition of the CellTiterGlo reagent (Promega G9242) as instructed by the provider. The luminescent signal was recorded on a SpectraMax M2 microplate reader. The signal obtained in wells containing cells cultivated in the absence of compound was set to 100% growth after subtracting the signal obtained in medium only wells. The % growth in each well was calculated by subtracting the medium only value and dividing through the 100% growth value. The IC50 for cell growth, the concentration of compound at which cell growth was reduced to 50%, was calculated with the GraFit6 software (Erythacus software).

[3] = read-out: Inhibition of MNK1 activity at indicated concentration

T1 sequence (Q9BUB5 whole entry): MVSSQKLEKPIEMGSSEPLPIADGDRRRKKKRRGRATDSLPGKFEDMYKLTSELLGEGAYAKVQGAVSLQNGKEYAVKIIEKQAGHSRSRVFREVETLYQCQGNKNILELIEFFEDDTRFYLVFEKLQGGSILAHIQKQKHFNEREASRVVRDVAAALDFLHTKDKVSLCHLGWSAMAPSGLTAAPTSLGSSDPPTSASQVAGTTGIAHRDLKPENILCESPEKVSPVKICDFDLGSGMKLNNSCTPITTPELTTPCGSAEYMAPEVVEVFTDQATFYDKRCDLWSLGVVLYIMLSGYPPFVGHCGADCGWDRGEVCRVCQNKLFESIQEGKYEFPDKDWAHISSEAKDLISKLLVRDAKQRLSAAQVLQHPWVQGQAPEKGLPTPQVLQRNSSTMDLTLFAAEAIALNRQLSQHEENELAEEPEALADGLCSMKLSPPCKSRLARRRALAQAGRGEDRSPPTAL

| SMILES | IC50 [2] [µM] | IC50 [1] [µM] | other results |
| --- | --- | --- | --- |
| Nc1ncc(-c2ccc(F)c(F)c2)c2cc(CN3CCC(N)CC3)cc(Cl)c12 [Example 285] | 6.77 | 0.15 |  |
| COc1cc(CN2CCC(N)CC2)cc2c(-c3cccs3)cnc(N)c12 [Example 298] | 3.58 | 0.282 |  |
| COc1cc(CN2CCC(N)CC2)cc2c(-c3ccco3)cncc12 [Example 244] | 14.2 | 0.116 |  |
| NC1CCN(Cc2ccc3cncc(-c4cc5ccccc5o4)c3c2)CC1(F)F (stereo not drawn) [Example 263, 1-[[4-(Benzofuran-2-yl)-6-isoquinolyl]methyl]-3,3-difluoro-piperidin-4-amine] | 9.97 | 0.703 |  |
| c1ccc2oc(-c3cncc4ccc(OC5CCNCC5)cc34)cc2c1 [Example 78, 4-(Benzofuran-2-yl)-6-(4-piperidyloxy)isoquinoline] | 3.46 | 0.208 |  |
| COc1cc2c(N)ncc(-c3ccccc3)c2cc1CN1CCC(N)CC1 [Example 267, 6-[(4-Amino-1-piperidyl)methyl]-7-methoxy-4-phenyl-isoquinolin-1-amine] | 3.93 | 0.34 |  |
| COc1cc(CN2CCC(N)CC2)cc2c(-c3ccco3)cnc(N)c12 [Example 297] | 1.21 | 0.29 |  |
| Clc1cnccc1NCc1ccc2cncc(-c3cc4ccccc4o3)c2c1 [Example 71] | 10.3 | 0.128 |  |
| c1ccc2oc(-c3cncc4ccc(NCC5CCCNC5)cc34)cc2c1 (stereo not drawn) [Example 214] | 1.42 | 0.534 |  |
| c1ccc2oc(-c3cncc4ccc(CNc5ccnc6ncccc56)cc34)cc2c1 [Example 262, N-[[4-(Benzofuran-2-yl)-6-isoquinolyl]methyl]-1,8-naphthyridin-4-amine] | 6.8 | 0.028 |  |
| c1ccc2oc(-c3cncc4ccc(CN5CCCCC5)cc34)cc2c1 [Example 294] | 35.3 | 1.52 |  |
| c1ccc2oc(C3CNNc4ccc(CNc5ccncc5)cc43)cc2c1 (stereo not drawn) [Example 277, N-[[4-(Benzofuran-2-yl)-1,2,3,4-tetrahydrocinnolin-6-yl]methyl]pyridin-4-amine] | 5.76 | 0.131 |  |
| Nc1ccc(Nc2ccc3cncc(-c4cc5ccccc5o4)c3c2)cn1 [Example 138, N5-[4-(Benzofuran-2-yl)-6-isoquinolyl]pyridine-2,5-diamine] | 12.1 | 1.6 |  |
| Nc1ncc(-c2cc3ccccc3o2)c2cc(CN3CCNCC3)ccc12 [Example 223] | 3.94 | 1.14 |  |
| c1ccc2oc(-c3cncc4ccc(Cn5ccc6ccncc65)cc34)cc2c1 [Example 191, 4-(Benzofuran-2-yl)-6-(pryrrolo[2,3-c]pyridin-1-ylmethyl)isoquinoline] | 19 | 0.437 |  |
| Cc1ccc(-c2cncc3ccc(CN4CCNCC4)cc23)o1 [Example 226] | 20.4 | 0.229 |  |
| Nc1ncc2ccc(CN3CCC(N)CC3)cc2c1-c1cc2ccccc2o1 [Example 164, 6-[(4-Amino-1-piperidyl)methyl]-4-(benzofuran-2-yl)isoquinolin-3-amine] | 6.62 | 0.847 |  |
| Cn1nccc1Nc1ccc2cncc(-c3cc4ccccc4o3)c2c1 [Example 98, 4-(Benzofuran-2-yl)-N-(2-methylpyrazol-3-yl)isoquinolin-6-amine] | 9.88 |  | inhibition at 1 µM [1, 3]: 40% |
| Cc1cc(N)cc[n+]1Cc1ccc2cncc(-c3cc4ccccc4o3)c2c1 [Example 125, 1-[[4-(Benzofuran-2-yl)-6-isoquinolyl]methyl]-2-methyl-pyridin-1-ium-4-amine] | 4.04 | 0.052 |  |
| Nc1ncc(-c2ccco2)c2cc(CN3CCC(N)CC3)cc(Cl)c12 [Example 286] | 1.64 | 0.027 |  |
| NC1CCN(Cc2ccc3cncc(-c4cc5ccccc5o4)c3c2)c2ccccc21 (stereo not drawn) [Example 207] | 8.04 | 0.606 |  |
| Cc1c[n+](Cc2ccc3cncc(-c4cc5ccccc5o4)c3c2)ccc1N [Example 57] | 3.37 | 0.0079 |  |
| Cc1cc(NCc2ccc3cncc(-c4cc5ccccc5o4)c3c2)cc(C)n1 [Example 126] | 5.5 | 0.363 |  |
| Nc1cc[n+](Cc2ccc3cncc(-c4cc5ccccc5o4)c3c2)nc1 [Example 127] | 8.48 | 0.021 |  |
| COc1cc(CN2CCC(N)CC2)cc2c(-c3cccs3)cncc12 [Example 245] | 3.33 | 0.024 |  |
| c1ccc2oc(-c3cncc4ccc(Nc5ccncc5)cc34)cc2c1 [Example 139, 4-(Benzofuran-2-yl)-N-(4-pyridyl)isoquinolin-6-amine] | 10.4 | 0.903 |  |
| FC(F)(F)c1cc(NCc2ccc3cncc(-c4cc5ccccc5o4)c3c2)ccn1 [Example 64] | 14.8 |  | inhibition at 10 µM ([1]; at 10 μM, read-out: Inhibition of MNK1 activity at indicated concentration): 41% |

Continued, in another order:

| IC50 [2] [µM] | IC50 [1] [µM] | SMILES | other results |
| --- | --- | --- | --- |
| 20.7 |  | NCCCOCc1ccc2cncc(-c3ccc(Cl)cc3)c2c1 [Example 106] | inhibition at 1 µM [1, 3]: 34% |
| 14.4 | 0.059 | COc1cc2cncc(-c3ccccc3)c2cc1CN1CCC(N)CC1 [Example 266, 1-[(7-Methoxy-4-phenyl-6-isoquinolyl)methyl]piperidin-4-amine] |  |
| 4.43 | 1.02 | NC1CCN(Cc2ccc3cncc(-c4nc5ccccc5s4)c3c2)CC1 [Example 227, 1-[[4-(1,3-Benzothiazol-2-yl)-6-isoquinolyl]methyl]piperidin-4-amine] |  |
| 7.89 |  | NCc1cccc(-c2cncc3ccc(CN4CCC(N)CC4)cc23)c1 [Example 184] | inhibition at 1 µM [1, 3]: 35% |
| 24 | 1.24 | CC(=O)c1cccc(-c2cncc3ccc(CN4CCC(N)CC4)cc23)c1 [Example 186] |  |
| 3.98 | 0.624 | NC1CCN(Cc2ccc3cncc(-c4cc5ccncc5o4)c3c2)CC1 [Example 274] |  |
| 9.21 | 3.15 | NC1CCN(Cc2ccc3cncc(-c4ccc(NC(=O)Nc5ccc(Cl)cc5)cc4)c3c2)CC1 [Example 113, 1-[4-[6-[(4-Amino-1-piperidyl)methyl]-4-isoquinolyl]phenyl]-3-(4-chlorophenyl)urea] |  |
| 5.09 | 0.161 | N[C@@H]1CCC[C@H](Nc2ccc3cncc(-c4cc5ccccc5o4)c3c2)C1 [Example 292] |  |
| 25 | 0.351 | NC1CCCC(NCc2ccc3cncc(-c4ccc(O)cc4)c3c2)C1 (stereo not drawn) [Example 38] |  |
|  | 0.263 | Oc1ccc(-c2cncc3ccc(CNC4CCNCC4)cc23)cc1 [Example 40] | inhibition at 100 µM ([2]; MIA PaCa-2, at 100 μM, read-out: Inhibition of MiaPaCa growth at indicated concentration): 48% |
| 11.2 | 0.189 | NC1CCN(Cc2ccc3cncc(-c4ccc(Cl)s4)c3c2)CC1 [Example 171] |  |
| 12.4 | 0.76 | NC1CCN(Cc2ccc3cncc(-c4ccc5[nH]ccc5c4)c3c2)CC1 [Example 168] |  |
| 32.6 |  | N#Cc1cccc(-c2cncc3ccc(CN4CCC(N)CC4)cc23)c1 [Example 5] | inhibition at 1 µM [1, 3]: 39% |
| 3.83 | 1.21 | NC1CCN(Cc2ccc3cncc(-c4ccc(NC(=O)Nc5cccc(Cl)c5)cc4)c3c2)CC1 [Example 114] |  |
| 13 | 0.266 | NC1CCN(Cc2ccc3cncc(-c4cccc(O)c4)c3c2)CC1 [Example 187] |  |
| 7.2 | 0.577 | Nc1ncc(-c2ccccc2)c2cc(CN3CCC(N)CC3)ccc12 [Example 92] |  |
| 1.96 | 0.01 | N[C@H]1CC[C@H](Nc2ccc3cncc(-c4cc5ccccc5o4)c3n2)CC1 [Example 304, trans-N4-[8-(benzofuran-2-yl)-1,6-naphthyridin-2-yl]cyclohexane-1,4-diamine] |  |
|  | 0.197 | Nc1ncc(-c2ccc(O)cc2)c2cc(CN3CCNCC3)ccc12 [Example 93] | inhibition at 50 µM ([2]; MIA PaCa-2, at 50 μM, read-out: Inhibition of MiaPaCa growth at indicated concentration): 27% |
